Results as given in the NIST ThermoML archive (doi:10.1021/acs.jced.9b00185).
Numbers after ± are expanded uncertainties.

Legend:
[1] = excess molar enthalpy (molar enthalpy of mixing); xn = mol fraction of the nth substance listed; conditions: 298.15 K, 98.8 kPa, Liquid, Calvet calorimetry
[2] = refractive index (Na D-line) (dimensionless); conditions: 298.15 K; 101.33 kPa; Liquid; Standard Abbe refractometry
[3] = 298.15 K; 101.33 kPa; Liquid; Vibrating tube method
[4] = xn = mol fraction of the nth substance listed; conditions: 298.15 K, 98.8 kPa, Liquid, Vibrating tube method

CCCCCCCCCC [decane] + CCCCCCCCCC(=O)OC
Conditions	excess molar enthalpy [kcal/mol]
[1], x2 = 0	0 ± 0.000239

CCCCCCCCCCCC [dodecane]
Conditions	mass density [kg/m3]	refractive index
[2]	–	1.4197 ± 0.0005
[3]	745.2 ± 1	–

CCCCCCCCCC(=O)OC [methyl decanoate] + CCCCCCCC
[1]
Conditions	excess molar enthalpy [kcal/mol]
x1 = 0.0551	0.0394 ± 0.00167
x1 = 0.1035	0.0691 ± 0.00287
x1 = 0.154	0.0949 ± 0.00382
x1 = 0.2078	0.113 ± 0.00454
x1 = 0.2514	0.127 ± 0.00526
x1 = 0.3088	0.137 ± 0.0055
x1 = 0.3584	0.143 ± 0.00574
x1 = 0.399	0.147 ± 0.00598
x1 = 0.4514	0.146 ± 0.00598
x1 = 0.5051	0.143 ± 0.00598
x1 = 0.5555	0.137 ± 0.0055
x1 = 0.599	0.131 ± 0.00526
x1 = 0.657	0.115 ± 0.00478
x1 = 0.7066	0.103 ± 0.0043
x1 = 0.7511	0.0913 ± 0.00382
x1 = 0.8069	0.0712 ± 0.00287
x1 = 0.8577	0.0533 ± 0.00215
x1 = 0.9098	0.0351 ± 0.00143
x1 = 0.9561	0.0167 ± 0.000717
x1 = 1	0 ± 0.000239

CCCCCCCC [octane] + CCCCCCCCCC(=O)OC
Conditions	excess molar enthalpy [kcal/mol]
[1], x2 = 0	0 ± 0.000239

CCCCCCCCCCCC [dodecane] + CCCCCCCCCC(=O)OC
x2 = 0
Conditions	excess molar enthalpy [kcal/mol]	mass density [kg/m3]
[1]	0 ± 0.000239	–
[4]	–	745.2 ± 1

CCCCCCCC [octane]
Conditions	mass density [kg/m3]	refractive index
[2]	–	1.3955 ± 0.0005
[3]	698.45 ± 1	–

CCCCCCCCCC [decane]
Conditions	mass density [kg/m3]	refractive index
[2]	–	1.41 ± 0.0005
[3]	726.61 ± 1	–

CCCCCCCCCC(=O)OC [methyl decanoate] + CCCCCCCCCCCCCC
Conditions	excess molar enthalpy, [1] [kcal/mol]	mass density, [4] [kg/m3]
x1 = 0.0498	–	763.35 ± 1
x1 = 0.0633	0.0497 ± 0.00215	–
x1 = 0.0922	0.0712 ± 0.00287	–
x1 = 0.1001	–	767.69 ± 1
x1 = 0.1502	–	772.18 ± 1
x1 = 0.1577	0.108 ± 0.0043	–
x1 = 0.1964	0.126 ± 0.00526	–
x1 = 0.1998	–	776.73 ± 1
x1 = 0.2496	–	781.41 ± 1
x1 = 0.258	0.152 ± 0.00621	–
x1 = 0.2999	–	786.24 ± 1
x1 = 0.3045	0.163 ± 0.00669	–
x1 = 0.3501	–	791.21 ± 1
x1 = 0.3597	0.176 ± 0.00717	–
x1 = 0.3944	0.184 ± 0.00741	–
x1 = 0.4001	–	796.26 ± 1
x1 = 0.4492	0.19 ± 0.00765	–
x1 = 0.4498	–	801.43 ± 1
x1 = 0.5001	–	806.77 ± 1
x1 = 0.5076	0.19 ± 0.00765	–
x1 = 0.5498	–	812.19 ± 1
x1 = 0.5535	0.185 ± 0.00765	–
x1 = 0.5997	–	817.76 ± 1
x1 = 0.607	0.173 ± 0.00693	–
x1 = 0.6499	–	823.51 ± 1
x1 = 0.6586	0.161 ± 0.00669	–
x1 = 0.6999	–	829.37 ± 1
x1 = 0.7089	0.146 ± 0.00598	–
x1 = 0.7501	–	835.45 ± 1
x1 = 0.7542	0.131 ± 0.00526	–
x1 = 0.799	–	841.48 ± 1
x1 = 0.8009	0.115 ± 0.00478	–
x1 = 0.8477	0.0946 ± 0.00382	–
x1 = 0.849	–	847.78 ± 1
x1 = 0.8974	0.0676 ± 0.00287	–
x1 = 0.8992	–	854.34 ± 1
x1 = 0.9455	0.0423 ± 0.00167	–
x1 = 0.95	–	861.12 ± 1
x1 = 1	0 ± 0.000239	868.02 ± 1

CCCCCCCCCC(=O)OC [methyl decanoate] + CCCCCCCCCC
[1]
Conditions	excess molar enthalpy [kcal/mol]
x1 = 0.0469	0.033 ± 0.00143
x1 = 0.0985	0.0662 ± 0.00263
x1 = 0.1523	0.0915 ± 0.00382
x1 = 0.2018	0.115 ± 0.00478
x1 = 0.2537	0.133 ± 0.0055
x1 = 0.3062	0.15 ± 0.00621
x1 = 0.3563	0.156 ± 0.00645
x1 = 0.4008	0.16 ± 0.00645
x1 = 0.4543	0.162 ± 0.00669
x1 = 0.5058	0.159 ± 0.00645
x1 = 0.5498	0.156 ± 0.00645
x1 = 0.6017	0.146 ± 0.00598
x1 = 0.6524	0.133 ± 0.0055
x1 = 0.7078	0.114 ± 0.00454
x1 = 0.7597	0.0994 ± 0.00406
x1 = 0.8086	0.0813 ± 0.00335
x1 = 0.8592	0.0607 ± 0.00263
x1 = 0.9058	0.0406 ± 0.00167
x1 = 0.9566	0.0151 ± 0.000717
x1 = 1	0 ± 0.000239

CCCCCCCCCCCCCCCC [hexadecane]
Conditions	mass density [kg/m3]	refractive index
[2]	–	1.4323 ± 0.0005
[3]	769.8 ± 1	–

CCCCCC [hexane] + CCCCCCCCCC(=O)OC
Conditions	excess molar enthalpy [kcal/mol]
[1], x2 = 0	0 ± 0.000239

CCCCCCCCCC(=O)OC [methyl decanoate] + CCCCCCCCCCCCCCCC
Conditions	excess molar enthalpy, [1] [kcal/mol]	mass density, [4] [kg/m3]
x1 = 0.0499	–	773.1 ± 1
x1 = 0.0636	0.0471 ± 0.00191	–
x1 = 0.0998	–	776.6 ± 1
x1 = 0.1131	0.081 ± 0.00335	–
x1 = 0.1501	–	780.26 ± 1
x1 = 0.1619	0.107 ± 0.0043	–
x1 = 0.2	–	783.98 ± 1
x1 = 0.201	0.129 ± 0.00526	–
x1 = 0.2497	–	787.88 ± 1
x1 = 0.2575	0.153 ± 0.00621	–
x1 = 0.3006	–	791.99 ± 1
x1 = 0.3056	0.17 ± 0.00693	–
x1 = 0.3497	–	796.11 ± 1
x1 = 0.3584	0.184 ± 0.00741	–
x1 = 0.398	0.195 ± 0.00789	–
x1 = 0.4001	–	800.47 ± 1
x1 = 0.4494	0.198 ± 0.00813	–
x1 = 0.45	–	804.97 ± 1
x1 = 0.4955	0.198 ± 0.00813	–
x1 = 0.4997	–	809.64 ± 1
x1 = 0.5479	0.195 ± 0.00789	–
x1 = 0.5502	–	814.55 ± 1
x1 = 0.5983	0.188 ± 0.00765	–
x1 = 0.5995	–	819.57 ± 1
x1 = 0.6494	0.177 ± 0.00717	–
x1 = 0.6501	–	824.85 ± 1
x1 = 0.6996	–	830.28 ± 1
x1 = 0.7034	0.163 ± 0.00669	–
x1 = 0.7497	–	835.95 ± 1
x1 = 0.7512	0.145 ± 0.00598	–
x1 = 0.7997	–	841.91 ± 1
x1 = 0.8015	0.126 ± 0.00526	–
x1 = 0.8489	–	847.93 ± 1
x1 = 0.8493	0.102 ± 0.0043	–
x1 = 0.8992	–	854.43 ± 1
x1 = 0.8995	0.0707 ± 0.00287	–
x1 = 0.9494	–	861.11 ± 1
x1 = 0.9495	0.0366 ± 0.00167	–
x1 = 1	0 ± 0.000239	868.02 ± 1

CCCCCC [hexane]
Conditions	mass density [kg/m3]	refractive index
[2]	–	1.3725 ± 0.0005
[3]	654.81 ± 1	–

CCCCCCCCCCCCCC [tetradecane]
Conditions	mass density [kg/m3]	refractive index
[2]	–	1.4273 ± 0.0005
[3]	759.17 ± 1	–

CCCCCCCCCCCCCCCC [hexadecane] + CCCCCCCCCC(=O)OC
x2 = 0
Conditions	excess molar enthalpy [kcal/mol]	mass density [kg/m3]
[1]	0 ± 0.000239	–
[4]	–	769.8 ± 1

CCCCCCCCCC(=O)OC [methyl decanoate] + CCCCCCCCCCCC
Conditions	excess molar enthalpy, [1] [kcal/mol]	mass density, [4] [kg/m3]
x1 = 0.05	–	750.68 ± 1
x1 = 0.0512	0.0394 ± 0.00167	–
x1 = 0.1	–	756.24 ± 1
x1 = 0.1129	0.076 ± 0.00311	–
x1 = 0.1503	–	761.93 ± 1
x1 = 0.1513	0.101 ± 0.00406	–
x1 = 0.1998	–	767.59 ± 1
x1 = 0.2021	0.119 ± 0.00478	–
x1 = 0.25	–	773.38 ± 1
x1 = 0.2513	0.141 ± 0.00574	–
x1 = 0.299	0.152 ± 0.00621	–
x1 = 0.3001	–	779.28 ± 1
x1 = 0.3506	–	785.27 ± 1
x1 = 0.3572	0.163 ± 0.00669	–
x1 = 0.3996	–	791.16 ± 1
x1 = 0.4051	0.169 ± 0.00693	–
x1 = 0.4473	0.172 ± 0.00693	–
x1 = 0.4497	–	797.22 ± 1
x1 = 0.5002	–	803.37 ± 1
x1 = 0.5033	0.172 ± 0.00693	–
x1 = 0.55	–	809.54 ± 1
x1 = 0.5502	0.169 ± 0.00693	–
x1 = 0.5952	0.163 ± 0.00669	–
x1 = 0.5998	–	815.74 ± 1
x1 = 0.6499	–	822.04 ± 1
x1 = 0.652	0.15 ± 0.00621	–
x1 = 0.6994	–	828.35 ± 1
x1 = 0.7089	0.132 ± 0.0055	–
x1 = 0.7495	–	834.79 ± 1
x1 = 0.7524	0.117 ± 0.00478	–
x1 = 0.7996	–	841.3 ± 1
x1 = 0.8098	0.0954 ± 0.00382	–
x1 = 0.8493	–	847.78 ± 1
x1 = 0.8525	0.0731 ± 0.00311	–
x1 = 0.8997	–	854.45 ± 1
x1 = 0.9019	0.0485 ± 0.00191	–
x1 = 0.9496	–	861.18 ± 1
x1 = 0.9586	0.0196 ± 0.000956	–
x1 = 1	0 ± 0.000239	868.02 ± 1

CCCCCCCCCC(=O)OC [methyl decanoate] + CCCCCC
[1]
Conditions	excess molar enthalpy [kcal/mol]
x1 = 0.0479	0.0382 ± 0.00167
x1 = 0.0943	0.0636 ± 0.00263
x1 = 0.1448	0.081 ± 0.00335
x1 = 0.1927	0.105 ± 0.0043
x1 = 0.2477	0.114 ± 0.00478
x1 = 0.3077	0.123 ± 0.00502
x1 = 0.3542	0.126 ± 0.00526
x1 = 0.4059	0.125 ± 0.00502
x1 = 0.4574	0.12 ± 0.00502
x1 = 0.5055	0.113 ± 0.00454
x1 = 0.5557	0.107 ± 0.0043
x1 = 0.6037	0.0985 ± 0.00406
x1 = 0.6531	0.088 ± 0.00359
x1 = 0.7032	0.077 ± 0.00311
x1 = 0.752	0.0679 ± 0.00287
x1 = 0.8028	0.0543 ± 0.00215
x1 = 0.8496	0.0399 ± 0.00167
x1 = 0.9014	0.0277 ± 0.0012
x1 = 0.9328	0.0174 ± 0.000717
x1 = 1	0 ± 0.000239

CCCCCCCCCC(=O)OC [methyl decanoate]
Conditions	mass density [kg/m3]	refractive index
[2]	–	1.4235 ± 0.0005
[3]	868.02 ± 1	–

CCCCCCCCCCCCCC [tetradecane] + CCCCCCCCCC(=O)OC
x2 = 0
Conditions	excess molar enthalpy [kcal/mol]	mass density [kg/m3]
[1]	0 ± 0.000239	–
[4]	–	759.17 ± 1
